Source: patent US20240101570A1 (AMGEN INC., priority 2020, published 2024)

What was measured:
[1] = tested on: HCT116 MTAP null cells; assay: HCT116 MTAP null cell proliferation / viability (CellTiter-Glo, 6 days); assay type: cell-based; conditions: HCT116-MTAP null, 144 h, HCT116 MTAP null cells, 6 days, CellTiter-Glo; read-out: HCT-116 MTAP null IC50
How it was run: (§1)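 Viability read by CellTiter-Glo after 6-day compound exposure of MTAP-null and wild-type HCT116 cells grown in RPMI 1640 with 10% FBS. Dosing used 1:3 steps from 1 or 10 μM (8-9 points) or 1:2 steps from 10 or 50 μM (22 points); IC50 taken where fitted curve crosses 50% of control.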

[2] = tested on: HCT116 WT cells; assay: HCT116 WT cell proliferation / viability (CellTiter-Glo, 6 days); assay type: cell-based; conditions: Homo sapiens, HCT-116, 144 h, HCT116 WT cells, 6 days, CellTiter-Glo; read-out: HCT-116 WT IC50
How it was run: as §1

| IC50 [1] [nM] | IC50 [2] [nM] | SMILES |
| --- | --- | --- |
| 121 | 8160 | CC(C)N(Cc1ccc(C(F)(F)F)nn1)C(=O)c1cc2c3c(c(N)nc2cc1F)COC3 [Example 358, 4-amino-7-fluoro-N-(2-propanyl)-N-((6-(trifluoromethyl)-3-pyridazinyl)methyl)-1,3-dihydrofuro[3,4-c]quinoline-8-carboxamide] |
| 226 | 10200 | CN(Cc1ccc(C(F)(F)F)nn1)C(=O)c1cc2c3c(c(N)nc2cc1F)COC3 [Example 359, 4-amino-7-fluoro-N-methyl-N-((6-(trifluoromethyl)-3-pyridazinyl)methyl)-1,3-dihydrofuro[3,4-c]quinoline-8-carboxamide] |
| 53 | 3070 | CCN(Cc1ccc(C(F)(F)F)cn1)C(=O)c1ccc2nc(N)c3c(c2c1)CO[C@@H]3C [Example 360, (3R)-4-amino-N-ethyl-3-methyl-N-((5-(trifluoromethyl)-2-pyridinyl)methyl)-1,3-dihydrofuro[3,4-c]quinoline-8-carboxamide] |
| 173 | 7750 | CCN(Cc1ccc(C(F)(F)F)cn1)C(=O)c1cc2c3c(c(N)nc2cn1)COC3 [Example 361, 4-amino-N-ethyl-N-((5-(trifluoromethyl)-2-pyridinyl)methyl)-1,3-dihydrofuro[3,4-c][1,7]naphthyridine-8-carboxamide] |
| 76 | 2210 | CCN(Cc1ccc(C(F)(F)F)cn1)C(=O)c1ccc2nc(N)c3c(c2c1)COC3 [Example 362, 4-amino-N-ethyl-N-((5-(trifluoromethyl)-2-pyridinyl)methyl)-1,3-dihydrofuro[3,4-c]quinoline-8-carboxamide] |
| 36 | 1180 | CC(C)N(Cc1ccc(C2CC2)nc1)C(=O)c1cc2c3c(c(N)nc2cc1F)COC3 [Example 363, 4-amino-N-((6-cyclopropyl-3-pyridinyl)methyl)-7-fluoro-N-(2-propanyl)-1,3-dihydrofuro[3,4-c]quinoline-8-carboxamide] |
| 58 | 1760 | CC(C)N(Cc1ccc(C2CC2)cn1)C(=O)c1ccc2nc(N)c3c(c2c1)COC3 [Example 364, 4-amino-N-((5-cyclopropyl-2-pyridinyl)methyl)-N-(2-propanyl)-1,3-dihydrofuro[3,4-c]quinoline-8-carboxamide] |
| 76 | 6500 | Nc1nc2cnc(C(=O)N(Cc3ccc(C(F)(F)F)cn3)C3CC3)cc2c2c1COC2 [Example 365, 4-amino-N-cyclopropyl-N-((5-(trifluoromethyl)-2-pyridinyl)methyl)-1,3-dihydrofuro[3,4-c][1,7]naphthyridine-8-carboxamide] |
| 175 | 12500 | CC(C)N(Cc1ccc(C(F)(F)F)nn1)C(=O)c1cc2c3c(c(N)nc2cn1)COC3 [Example 366, 4-amino-N-(2-propanyl)-N-((6-(trifluoromethyl)-3-pyridazinyl)methyl)-1,3-dihydrofuro[3,4-c][1,7]naphthyridine-8-carboxamide] |
| 2280 | > 50000 | CN(Cc1ccc(C#N)cn1)C(=O)c1cc2c3c(c(N)nc2cn1)COC3 [Example 367, 4-amino-N-((5-cyano-2-pyridinyl)methyl)-N-methyl-1,3-dihydrofuro[3,4-c][1,7]naphthyridine-8-carboxamide] |
| 65 | 3260 | C[C@H]1OCc2c1c(N)nc1ccc(C(=O)N(Cc3ccc(C4CC4)cn3)C3CC3)cc21 [Example 368, (3R)-4-amino-N-cyclopropyl-N-((5-cyclopropyl-2-pyridinyl)methyl)-3-methyl-1,3-dihydrofuro[3,4-c]quinoline-8-carboxamide] |
| 124 | 5040 | Nc1nc2cc(F)c(C(=O)N(Cc3ccc(C(F)(F)F)cn3)C3CC3)cc2c2c1COC2 [Example 369, 4-amino-N-cyclopropyl-7-fluoro-N-((5-(trifluoromethyl)-2-pyridinyl)methyl)-1,3-dihydrofuro[3,4-c]quinoline-8-carboxamide] |
| 29 | 1370 | Nc1nc2cc(F)c(C(=O)N(Cc3ccc(C4CC4)cn3)C3CC3)cc2c2c1COC2 [Example 370, 4-amino-N-cyclopropyl-N-((5-cyclopropyl-2-pyridinyl)methyl)-7-fluoro-1,3-dihydrofuro[3,4-c]quinoline-8-carboxamide] |
| 10 | 288 | CC(C)N(Cc1ccc(C2CC2)cn1)C(=O)c1cc2c3c(c(N)nc2cc1F)COC3 [Example 371, 4-amino-N-((5-cyclopropyl-2-pyridinyl)methyl)-7-fluoro-N-(2-propanyl)-1,3-dihydrofuro[3,4-c]quinoline-8-carboxamide] |
| 110 | 5610 | CN(Cc1ccc(C2CC2)cn1)C(=O)c1cc2c3c(c(N)nc2cc1F)COC3 [Example 372, 4-amino-N-((5-cyclopropyl-2-pyridinyl)methyl)-7-fluoro-N-methyl-1,3-dihydrofuro[3,4-c]quinoline-8-carboxamide] |
| 22 | 2980 | CCOc1ccc(CN(C(=O)c2ccc3nc(N)c4c(c3c2)COC4)[C@H](C)COC)nn1 [Example 373, 4-amino-N-((6-ethoxy-3-pyridazinyl)methyl)-N-((2R)-1-methoxy-2-propanyl)-1,3-dihydrofuro[3,4-c]quinoline-8-carboxamide] |
| 14 | 286 | CCOc1ccc(CN(C(=O)c2ccc3nc(N)c4c(c3c2)CO[C@@H]4C)[C@H](C)COC)nn1 [Example 374, (3R)-4-amino-N-((6-ethoxy-3-pyridazinyl)methyl)-N-((2R)-1-methoxy-2-propanyl)-3-methyl-1,3-dihydrofuro[3,4-c]quinoline-8-carboxamide] |
| 1500 | 6890 | CN(Cc1ccc(C(F)(F)F)nn1)C(=O)c1cc2c3c(c(N)nc2cn1)COC3 [Example 375, 4-amino-N-methyl-N-((6-(trifluoromethyl)-3-pyridazinyl)methyl)-1,3-dihydrofuro[3,4-c][1,7]naphthyridine-8-carboxamide] |
| 222 | 15200 | C[C@H]1OCc2c1c(N)nc1ccc(C(=O)N(C)Cc3ccc(C(F)(F)F)cn3)cc21 [Example 376, (3R)-4-amino-N,3-dimethyl-N-((5-(trifluoromethyl)-2-pyridinyl)methyl)-1,3-dihydrofuro[3,4-c]quinoline-8-carboxamide] |
| 49 | 2060 | CC(C)N(Cc1ccc(C2CC2)cn1)C(=O)c1ccc2nc(N)c3c(c2c1)CO[C@@H]3C [Example 377, (3R)-4-amino-N-((5-cyclopropyl-2-pyridinyl)methyl)-3-methyl-N-(2-propanyl)-1,3-dihydrofuro[3,4-c]quinoline-8-carboxamide] |
| 294 | 9430 | CCOc1ccc(CN(C(=O)c2cc3c4c(c(N)nc3cn2)COC4)C23CC(C2)C3)nn1 [Example 378, 4-amino-N-(bicyclo[1.1.1]pentan-1-yl)-N-((6-ethoxy-3-pyridazinyl)methyl)-1,3-dihydrofuro[3,4-c][1,7]naphthyridine-8-carboxamide] |
| 25 | 764 | CC(C)N(Cc1ccc(C2CC2)cn1)C(=O)c1cc2c3c(c(N)nc2cc1Cl)COC3 [Example 379, 4-amino-7-chloro-N-((5-cyclopropyl-2-pyridinyl)methyl)-N-(2-propanyl)-1,3-dihydrofuro[3,4-c]quinoline-8-carboxamide] |
